According to the supplement of paper PMC11451515:

Tested on: SEM cells
Experiment: cell viability relative to DMSO control; higher = less cytotoxic
Details: 48 h
In short: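 Cells were incubated for 48 h at 37°C before CellTiter-Glo One luminescence was read. The cells were NOMO1 or SEM (500 cells/well) or P12-Ichikawa (1000 cells/well) leukemia cells, adapted for at least four passages in each medium and seeded in 1536-well plates (5 μl). Dosing used library compounds in DMSO applied by pin over 11 threefold points, 47 μM to 0.79 nM. Viability is the per-plate percentage of DMSO wells, with cell-free wells as background.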

[1] = HPLM + 10% dialyzed FBS, 0.000781 µM
[2] = HPLM + 10% dialyzed FBS, 0.00234 µM
[3] = HPLM + 10% dialyzed FBS, 0.00702 µM
[4] = HPLM + 10% dialyzed FBS, 0.0211 µM
[5] = HPLM + 10% dialyzed FBS, 0.0632 µM
[6] = HPLM + 10% dialyzed FBS, 0.19 µM
[7] = HPLM + 10% dialyzed FBS, 0.569 µM
[8] = HPLM + 10% dialyzed FBS, 1.71 µM
[9] = HPLM + 10% dialyzed FBS, 5.12 µM
[10] = HPLM + 10% dialyzed FBS, 15.4 µM
[11] = HPLM + 10% dialyzed FBS, 46.1 µM
[12] = RPMI 5 mM glucose + 10% dialyzed FBS, 0.000781 µM
[13] = RPMI 5 mM glucose + 10% dialyzed FBS, 0.00234 µM
[14] = RPMI 5 mM glucose + 10% dialyzed FBS, 0.00702 µM
[15] = RPMI 5 mM glucose + 10% dialyzed FBS, 0.0211 µM
[16] = RPMI 5 mM glucose + 10% dialyzed FBS, 0.0632 µM
[17] = RPMI 5 mM glucose + 10% dialyzed FBS, 0.19 µM
[18] = RPMI 5 mM glucose + 10% dialyzed FBS, 0.569 µM
[19] = RPMI 5 mM glucose + 10% dialyzed FBS, 1.71 µM
[20] = RPMI 5 mM glucose + 10% dialyzed FBS, 5.12 µM
[21] = RPMI 5 mM glucose + 10% dialyzed FBS, 15.4 µM
[22] = RPMI 5 mM glucose + 10% dialyzed FBS, 46.1 µM
[23] = RPMI 5 mM glucose + 10% FBS, 0.000781 µM
[24] = RPMI 5 mM glucose + 10% FBS, 0.00234 µM
[25] = RPMI 5 mM glucose + 10% FBS, 0.00702 µM
[26] = RPMI 5 mM glucose + 10% FBS, 0.0211 µM
[27] = RPMI 5 mM glucose + 10% FBS, 0.0632 µM
[28] = RPMI 5 mM glucose + 10% FBS, 0.19 µM
[29] = RPMI 5 mM glucose + 10% FBS, 0.569 µM
[30] = RPMI 5 mM glucose + 10% FBS, 1.71 µM
[31] = RPMI 5 mM glucose + 10% FBS, 5.12 µM
[32] = RPMI 5 mM glucose + 10% FBS, 15.4 µM
[33] = RPMI 5 mM glucose + 10% FBS, 46.1 µM

Compound | cell viability [1] [%] | cell viability [2] [%] | cell viability [3] [%] | cell viability [4] [%] | cell viability [5] [%] | cell viability [6] [%] | cell viability [7] [%] | cell viability [8] [%] | cell viability [9] [%] | cell viability [10] [%] | cell viability [11] [%] | cell viability [12] [%] | cell viability [13] [%] | cell viability [14] [%] | cell viability [15] [%] | cell viability [16] [%] | cell viability [17] [%] | cell viability [18] [%] | cell viability [19] [%] | cell viability [20] [%] | cell viability [21] [%] | cell viability [22] [%] | cell viability [23] [%] | cell viability [24] [%] | cell viability [25] [%] | cell viability [26] [%] | cell viability [27] [%] | cell viability [28] [%] | cell viability [29] [%] | cell viability [30] [%] | cell viability [31] [%] | cell viability [32] [%] | cell viability [33] [%]
O=C(c1ccc(Nc2nccc(-c3cc4ccccc4s3)n2)cc1)N1CCC(N2CCCC2)CC1 | 103 | 107 | 108 | 110 | 102 | 104 | 99.3 | 82.4 | 65.2 | 10.8 | 2.34 | 105 | 120 | 98.2 | 118 | 106 | 114 | 108 | 97.9 | 69.3 | 28.2 | 2.16 | – | – | – | – | – | – | – | – | – | – | –
Cc1c(C(=O)NN2CCCCC2)nn(-c2ccc(Cl)cc2Cl)c1-c1ccc(Cl)cc1 | 103 | 125 | 113 | 114 | 128 | 129 | 122 | 124 | 131 | 127 | 93 | 107 | 120 | 137 | 116 | 128 | 149 | 139 | 144 | 119 | 133 | 104 | 103 | 112 | 118 | 118 | 118 | 127 | 127 | 135 | 130 | 129 | 99.5
COc1cc2ncnc(Nc3ccc(F)c(Cl)c3)c2cc1NC(=O)/C=C/CN1CCCCC1 | 94.2 | 112 | 110 | 102 | 105 | 99.1 | 94.6 | 85.5 | 76.7 | 71.4 | 42.4 | 97.9 | 85.6 | 96.4 | 116 | 93.3 | 87 | 104 | 76.6 | 77.6 | 66.7 | 41.3 | 119 | 129 | 120 | 119 | 122 | 117 | 124 | 91.3 | 88.6 | 80.2 | 42.3
NC\1=N\C(=O)N(\C=C1)[C@@H]2O[C@H](CO)[C@@H](O)[C@H]2O | 78.4 | 93.7 | 119 | 98.3 | 117 | 131 | 132 | 115 | 111 | 125 | 75.3 | 83.6 | 101 | 125 | 94.5 | 140 | 138 | 154 | 152 | 154 | 153 | 46.8 | 86.3 | 102 | 123 | 90.4 | 135 | 143 | 143 | 144 | 127 | 147 | 64.7
FC(F)c1nc2ccccc2n1-c1nc(N2CCOCC2)nc(N2CCOCC2)n1 | 85.1 | 79 | 83.6 | 85.9 | 73.8 | 62.8 | 61.3 | 66.6 | 49.7 | 60 | 38.7 | 84.2 | 78.9 | 71.9 | 87.5 | 72.2 | 68.7 | 60.6 | 63.1 | 66 | 54.3 | 37.1 | 87.6 | 80.7 | 93.5 | 84.4 | 75.3 | 70.5 | 75.6 | 63.1 | 66 | 62.4 | 45.8
CN(C)[C@H]\1[C@@H]2C[C@H]3C(=C(O)\[C@]2(O)C(=O)\C(=C1O)C(N)=O)/C(=O)C4=C(O)C=CC=C4[C@@]3(C)O | 92.6 | 88.5 | 81.5 | 101 | 92.5 | 90.8 | 92.7 | 86.6 | 85.2 | 90.1 | 78.3 | 118 | 108 | 128 | 129 | 89.8 | 108 | 126 | 116 | 59.4 | 116 | 100 | 113 | 118 | 114 | 102 | 83.7 | 104 | 108 | 96.8 | 93.2 | 109 | 93
CCn1c(-c2nonc2N)nc2cnc(Oc3cccc(NC(=O)c4ccc(OCCN5CCOCC5)cc4)c3)cc21 | 93.1 | 106 | 102 | 98.7 | 111 | 114 | 113 | 111 | 102 | 82.2 | 70.3 | 124 | 111 | 105 | 113 | 108 | 102 | 92.2 | 116 | 106 | 86.6 | 59.7 | 102 | 102 | 108 | 119 | 122 | 100 | 102 | 111 | 93.4 | 71.9 | 54.5
Cc1cc(C(C)(C)C)c(O)c(C)c1CC1=NCCN1 | 62.6 | 80.2 | 75.4 | 83 | 76.8 | 83.3 | 86.9 | 91.9 | 66.6 | 60.3 | 62.5 | 90.3 | 77.7 | 82.2 | 89.3 | 93.3 | 95.4 | 87.5 | 105 | 77.2 | 57.9 | 55.9 | 83.8 | 82.1 | 91.1 | 83.6 | 86.7 | 100 | 102 | 101 | 53.1 | 51.8 | 59.3
